Values quoted from earlier work in PMC3600422 (Journal of molecular biology, 2012).

Assays:
cancer cells = conditions: Mcl-1 or Bfl-1 overexpressed
[1] = test system: small cell lung carcinoma; conditions: mouse models

Binding to Bfl-1 (Bfl-1): do not bind to Mcl-1 or Bfl-1
Binding to Mcl-1 (Mcl-1): do not bind to Mcl-1
Structure (SMILES): CN(C)CC[C@H](CSc1ccccc1)Nc1ccc(S(=O)(=O)NC(=O)c2ccc(N3CCN(Cc4ccccc4-c4ccc(Cl)cc4)CC3)cc2)cc1[N+](=O)[O-] [ABT-737]
Inducing death in cancer cells (cancer cells): ineffective in inducing death in cancer cells when these anti-apoptotic proteins are overexpressed
Tumor regression [1]: can regress or eliminate small cell lung carcinoma
